Data as given in patent US20260207570A1, “OPTIMIZED DOSING OF LERIGLITAZONE” (MINORYX THERAPEUTICS S.L., priority 2022, published 2026).

Key:
[1] = PBPK model input parameters: blood and plasma binding; format: in vitro ADME, human
[2] = Phase 1 safety and tolerability (treatment-emergent adverse events); format: in vivo, human
Method: Study design: A phase 1, randomized, double blind, placebo-controlled, single-center clinical study in 33 male healthy volunteers (HV) (19-54 years, 63.2-95.7 Kg) was conducted with leriglitazone HCl and divided in two parts: a single ascending dose (SAD) with three dose levels (30, 90 and 270 mg) in fasted conditions, followed with two dose levels (90 and 270 mg) in fed conditions; a multiple ascending dose (MAD) with a double-blind, parallel-design with two dose levels (135 and 270 mg) for 8 days and a separate cohort of subjects in an open-label parallel design with two dose levels (135 and 270 mg) including cerebrospinal fluid (CSF) collection on day 8. In the fasted conditions a fasting period of at least 4 hours was required before obtaining plasma samples. The food effect (FE) was assessed by comparing fasted with fed conditions (dosing after a high-fat breakfast per FDA definition with a calculated caloric content of 918 kcal). In the MAD part (fed) the medication was taken before a normal breakfast. Leriglitazone HCl was supplied by ChemConnection and an oral suspension of leriglitazone (20% w/v kleptose, 2% ethanol in 100 mM phosphate buffer pH=7.8) at 6 mg/ml was used in the study. Safety: Safety and tolerability assessments consisted of adverse events (AEs), clinical laboratory, vital signs, 12-lead electrocardiogram (ECG), and physical examination.

CYP2C8 [3] = target: T1, CYP2C8 (Homo sapiens, UniProt P10632); experiment: Metabolism kinetics with recombinant CYP2C8; format: in vitro ADME; details: therapeutic range, up to 30 μM initial incubation concentration
T1 sequence (P10632 1-490): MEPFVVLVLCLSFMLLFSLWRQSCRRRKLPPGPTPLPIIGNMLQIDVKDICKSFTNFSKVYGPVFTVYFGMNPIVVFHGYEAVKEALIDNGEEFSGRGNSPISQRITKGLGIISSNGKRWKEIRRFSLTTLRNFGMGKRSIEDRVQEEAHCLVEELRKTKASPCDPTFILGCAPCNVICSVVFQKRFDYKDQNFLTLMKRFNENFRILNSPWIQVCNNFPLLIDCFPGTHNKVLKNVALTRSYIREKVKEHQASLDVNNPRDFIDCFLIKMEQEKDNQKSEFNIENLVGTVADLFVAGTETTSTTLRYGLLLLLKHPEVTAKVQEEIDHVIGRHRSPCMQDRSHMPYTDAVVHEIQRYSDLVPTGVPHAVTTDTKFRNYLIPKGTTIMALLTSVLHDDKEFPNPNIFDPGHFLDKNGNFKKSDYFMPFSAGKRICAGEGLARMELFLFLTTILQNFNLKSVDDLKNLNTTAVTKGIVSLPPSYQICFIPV
Text: (§1) CYP2C8 and CYP3A4 were identified in vitro as the major contributing enzymes of leriglitazone with CYP2C8 mostly responsible for the formation of the main metabolite M3. Kinetic parameters of human CYP2C8 and CYP3A4 mediated metabolism of leriglitazone were studied in in vitro studies using recombinant CYP3A4 and CYP2C8 enzymes (ADMESCOPE, Finland). […] As the disappearance of leriglitazone was very slow especially at high initial concentrations, the accuracy of the fit was not as good as based on M3 formation. […] Thus, it was not possible to fit the kinetic parameters Km and Vmax.

[4] = Single dose neuro-pk study in rats; format: in vivo; details: rat
Method: The ratio of unbound leriglitazone concentration in brain to unbound concentration in plasma (Kpu,u; Cb,u/Cp,u) was calculated dividing the unbound CSF Cmax by the unbound plasma Cmax. Fractions unbound in plasma (fu,p) to obtain the unbound Cmax values were already reported. Rodriguez-Pascau, L. et al., Sci. Transl. Med. 13, eabc0555 (2021).
In a single dose neuro-pk study in rats, at the efficacious dose of 17 mg/kg, the unbound brain concentration of leriglitazone was 175 ng/ml similar to the measured CSF concentration of 274 ng/ml (FIG. 7). Given the validity of CSF as a surrogate marker for brain unbound concentration was proven in rats, CSF levels of leriglitazone were measured in Phase 1 study and confirmed to be similar as in rodents. Unbound brain to plasma ratio (Kpu,u) of leriglitazone as a measure of brain distribution of free drug was 0.55 in humans and 0.25 in rats (Table 7).

CYP2C8 [5] = target: T1, CYP2C8; experiment: CYP2C8 contribution to clearance (fm, CLint) for the PBPK model; details: before accounting for biliary and renal clearance
Text: as §1

CYP3A4 [6] = target: T2, CYP3A4 (Homo sapiens, UniProt P08684); experiment: CYP3A4 contribution to clearance (fm, CLint) for the PBPK model
Text: as §1

CYP3A4 [7] = target: T2, CYP3A4; experiment: Metabolism kinetics with recombinant CYP3A4; format: in vitro ADME; set-up: purchased ADMESCOPE, Finland; details: used initial concentrations; Km and Vmax could not be fitted
Text: as §1

T2 sequence (P08684 whole entry): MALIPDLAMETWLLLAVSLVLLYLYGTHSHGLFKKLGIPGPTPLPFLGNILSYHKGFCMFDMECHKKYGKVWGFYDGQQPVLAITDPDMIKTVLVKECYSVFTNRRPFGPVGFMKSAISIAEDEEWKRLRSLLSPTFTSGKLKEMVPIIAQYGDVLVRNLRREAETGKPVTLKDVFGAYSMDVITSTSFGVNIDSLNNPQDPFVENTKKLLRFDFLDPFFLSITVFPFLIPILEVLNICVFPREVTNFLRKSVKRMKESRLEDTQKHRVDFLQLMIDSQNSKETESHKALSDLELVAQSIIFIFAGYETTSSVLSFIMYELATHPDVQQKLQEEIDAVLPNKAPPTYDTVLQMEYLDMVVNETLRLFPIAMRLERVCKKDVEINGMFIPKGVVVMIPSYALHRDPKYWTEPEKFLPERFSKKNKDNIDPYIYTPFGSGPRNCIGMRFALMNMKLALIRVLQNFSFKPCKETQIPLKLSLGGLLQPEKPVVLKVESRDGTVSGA

CC(O)c1ccc(CCOc2ccc(CC3SC(=O)NC3=O)cc2)nc1 (stereo not shown) [Leriglitazone, 5-[[4-[2-[5-(1-hydroxyethyl)pyridin-2-yl]ethoxy]phenyl]methyl]-1,3-thiazolidine-2,4-dione]
B:P [1]: 0.73
fugut [1]: 1
fraction unbound ([1]; human, plasma): 0.04
Gastrointestinal disorders: E ([2]; 135 mg, N = 9): 2
Gastrointestinal disorders: n (%) ([2]; 135 mg, N = 9): 1 (11)
General disorders and administration site conditions: E ([2]; 135 mg, N = 9): 1
General disorders and administration site conditions: n (%) ([2]; 135 mg, N = 9): 1 (11)
Metabolism and nutrition disorders: E ([2]; 135 mg, N = 9): 1
Metabolism and nutrition disorders: n (%) ([2]; 135 mg, N = 9): 1 (11)
Musculoskeletal and connective tissue disorders: E ([2]; 135 mg, N = 9): 3
Musculoskeletal and connective tissue disorders: n (%) ([2]; 135 mg, N = 9): 3 (33)
Nervous system disorders: E ([2]; 135 mg, N = 9): 5
Nervous system disorders: n (%) ([2]; 135 mg, N = 9): 3 (33)
Renal and urinary disorders: E ([2]; 135 mg, N = 9): 1
Renal and urinary disorders: n (%) ([2]; 135 mg, N = 9): 1 (11)
TEAEs Total: E ([2]; 135 mg, N = 9): 13
TEAEs Total: n (%) ([2]; 135 mg, N = 9): 5 (56)
Eye disorders: E ([2]; 270 mg, N = 8): 2
Eye disorders: n (%) ([2]; 270 mg, N = 8): 1 (13)
Gastrointestinal disorders: E ([2]; 270 mg, N = 8): 4
Gastrointestinal disorders: n (%) ([2]; 270 mg, N = 8): 3 (38)
General disorders and administration site conditions: E ([2]; 270 mg, N = 8): 1
General disorders and administration site conditions: n (%) ([2]; 270 mg, N = 8): 1 (13)
Infections and infestations: E ([2]; 270 mg, N = 8): 2
Infections and infestations: n (%) ([2]; 270 mg, N = 8): 2 (25)
Musculoskeletal and connective tissue disorders: E ([2]; 270 mg, N = 8): 1
Musculoskeletal and connective tissue disorders: n (%) ([2]; 270 mg, N = 8): 1 (13)
Nervous system disorders: E ([2]; 270 mg, N = 8): 3
Nervous system disorders: n (%) ([2]; 270 mg, N = 8): 3 (38)
Respiratory, thoracic and mediastinal disorders: E ([2]; 270 mg, N = 8): 3
Respiratory, thoracic and mediastinal disorders: n (%) ([2]; 270 mg, N = 8): 3 (38)
TEAEs Total: E ([2]; 270 mg, N = 8): 16
TEAEs Total: n (%) ([2]; 270 mg, N = 8): 8 (100)
contribution of CYP2C8, fraction metabolized (CYP2C8 [3]): around 70%
Kp ([4]; CSF and plasma (unbound), 17 mg/kg, unbound CSF Cmax / unbound plasma Cmax, read-out: Kpu, u based on CSF): 0.25
AUC ([4]; plasma, 17 mg/kg single dose, read-out: Total plasma AUC): 102 µg·h/mL
Cmax ([4]; plasma, 17 mg/kg single dose, read-out: Total plasma Cmax): 21100 ng/mL
CSF Cmax ([4]; 17 mg/kg single dose): 274 ng/mL
Total brain AUC ([4]; 17 mg/kg single dose): 6.582 µg·h/mL
Total brain Cmax ([4]; 17 mg/kg single dose): 1337.6 ng/mL
Kpu, u based on CSF ([4]; 17 mg/kg, unbound CSF Cmax / unbound plasma Cmax): 0,25
unbound brain concentration ([4]; efficacious dose of 17 mg/kg, single dose): 175 ng/mL
share of metabolism, CYP2C8 (CYP2C8 [5]): 63.7%
CLint, CYP3A4 (CYP3A4 [6]; PBPK model input, calculated from estimated fm and mean CL/F): 0.0097 µL/min/pmol
share of metabolism, CYP3A4 (CYP3A4 [6]; before accounting for biliary and renal clearance): 30%
saturation of metabolism by recombinant CYP3A4 (CYP3A4 [7]): did not saturate
